Laboratory results: patent US7592336B2, “Hepatitis C virus inhibitors” (Bristol-Myers Squibb Company, priority 2005, dated 2009)

Key:
[1] = test system: HCV replicon in HUH-7 cells; assay: HCV replicon FRET assay; type: cell-based, HCV strain 1b; conditions: Hepatitis C virus, Huh-7; HCV replicon cell assay; read-out: Activity Range (EC50)
From the text: An HCV replicon whole cell system was established as described by Lohmann V, Korner F, Koch J, Herian U, Theilmann L, Bartenschlager R., Science 285(5424):110-3 (1999). This system enabled us to evaluate the effects of our HCV Protease compounds on HCV RNA replication. Briefly, using the HCV strain 1b sequence described in the Lohmann paper (Assession number: AJ238799), an HCV cDNA was synthesized by Operon Technologies, Inc. (Alameda, Calif.), and the full-length replicon was then assembled in plasmid pGem9zf(+) (Promega, Madison, Wis.) using standard molecular biology techniques. The replicon consists of (i) the HCV 5′ UTR fused to the first 12 amino acids of the capsid protein, (ii) the neomycin phosphotransferase gene (neo), (iii) the IRES from encephalomyocarditis virus (EMCV), and (iv) HCV NS3 to NS5B genes and the HCV 3′ UTR. Plasmid DNAs were linearized with ScaI and RNA transcripts were synthesized in vitro using the T7 MegaScript transcription kit (Ambion, Austin, Tex.) according to manufacturer's directions. In vitro transcripts of the cDNA were transfected into the human hepatoma cell line, HUH-7. […] Resulting cell lines were characterized for positive and negative strand RNA production and protein production over time.
The HCV replicon FRET assay was developed to monitor the inhibitory effects of compounds described in the disclosure on HCV viral replication. HUH-7 cells, constitutively expressing the HCV replicon, were grown in Dulbecco's Modified Eagle Media (DMEM) (Gibco-BRL) containing 10% Fetal calf serum (FCS) (Sigma) and 1 mg/ml G418 (Gibco-BRL). Cells were seeded the night before (1.5×10^4 cells/well) in 96-well tissue-culture sterile plates. Compound and no compound controls were prepared in DMEM containing 4% FCS, 1:100 Penicillin/Streptomysin (Gibco-BRL), 1:100 L-glutamine and 5% DMSO in the dilution plate (0.5% DMSO final concentration in the assay). Compound/DMSO mixes were added to the cells and incubated for 4 days at 37° C. After 4 days, cells were first assessed for cytotoxicity using alamar Blue (Trek Diagnotstic Systems) for a CC50 reading. The toxicity of compound (CC50) was determined by adding 1/10th volume of alamar Blue to the media incubating the cells. After 4 h, the fluorescence signal from each well was read, with an excitation wavelength at 530 nm and an emission wavelength of 580 nm, using the Cytofluor Series 4000 (Perspective Biosystems). Plates were then rinsed thoroughly with Phosphate-Buffered Saline (PBS) (3 times 150 μl). The cells were lysed with 25 μl of a lysis assay reagent containing an HCV protease substrate (5× cell Luciferase cell culture lysis reagent (Promega #E153A) diluted to 1× with distilled water, NaCl added to 150 mM final, the FRET peptide substrate (as described for the enzyme assay above) diluted to 10 μM final from a 2 mM stock in 100% DMSO. […]. The plate was then placed into the Cytofluor 4000 instrument which had been set to 340 nm excitation/490 nm emission, automatic mode for 21 cycles and the plate read in a kinetic mode. EC50 determinations were carried out as described for the IC50 determinations.

[2] = target: T1, HCV NS3/4A protease complex, BMS strain (UniProt P27958, species not given/STRAIN_BMS); assay: FRET peptide assay to monitor HCV NS3/4A proteolytic activity (BMS strain); type: biochemical, HCV genotype 1a; conditions: NS3/4A BMS strain; read-out: Activity Range (IC50)
T1 construct: said of H77 and J4L6S, not expressly of BMS; fused on or other part: A three-lysine solubilising tail at the NS4A C-terminus and purification on Ni-NTA are described for the H77 and J4L6S constructs
From the text: HCV NS3 protease complexes, derived from the BMS strain, H77 strain or J4L6S strain, were generated, as described below. These purified recombinant proteins were generated for use in a homogeneous assay (see below) to provide an indication of how effective compounds of the present disclosure would be in inhibiting HCV NS3 proteolytic activity.
Serum from an HCV-infected patient was obtained from Dr. T. Wright, San Francisco Hospital. An engineered full-length cDNA (compliment deoxyribonucleic acid) template of the HCV genome (BMS strain) was constructed from DNA fragments obtained by reverse transcription-PCR (RT-PCR) of serum RNA (ribonucleic acid) and using primers selected on the basis of homology between other genotype 1a strains. From the determination of the entire genome sequence, a genotype 1a was assigned to the HCV isolate according to the classification of Simmonds et al. (See P Simmonds, K A Rose, S Graham, S W Chan, F McOmish, B C Dow, E A Follett, P L Yap and H Marsden, J. Clin. Microbiol., 31(6), 1493-1503 (1993)). […] The infectious clones, H77 (1a genotype) and J4L6S (1b genotype) were obtained from R. Purcell (NIH) and the sequences are published in Genbank (AAB67036, see Yanagi, M., Purcell, R. H., Emerson, S. U. and Bukh, J. Proc. Natl. Acad. Sci. U.S.A. 94(16), 8738-8743 (1997); AF054247, see Yanagi, M., St Claire, M., Shapiro, M., Emerson, S. U., Purcell, R. H. and Bukh, J, Virology 244 (1), 161-172. (1998)).
NS3/4A protease complex-containing fractions were pooled and loaded on a desalting column Superdex-S200 pre-equilibrated with buffer D (25 mM HEPES, pH 7.5, 20% glycerol, 300 mM NaCl, 0.2% Triton X-100, 10 mM βME). Sample was loaded at a flow rate of 1 mL/min. NS3/4A protease complex-containing fractions were pooled and concentrated to approximately 0.5 mg/ml. The purity of the NS3/4A protease complexes, derived from the BMS, H77 and J4L6S strains, were judged to be greater than 90% by SDS-PAGE and mass spectrometry analyses. The enzyme was stored at −80° C., thawed on ice and diluted prior to use in assay buffer.
The purpose of this in vitro assay was to measure the inhibition of HCV NS3 protease complexes, derived from the BMS strain, H77 strain or J4L6S strain, as described above, by compounds of the present disclosure. This assay provides an indication of how effective compounds of the present disclosure would be in inhibiting HCV NS3 proteolytic activity.
In order to monitor HCV NS3/4A protease activity, an NS3/4A peptide substrate was used. The substrate was RET S1 (Resonance Energy Transfer Depsipeptide Substrate; AnaSpec, Inc. cat #22991) (FRET peptide), described by Taliani et al. in Anal. Biochem. 240(2):60-67 (1996). The sequence of this peptide is loosely based on the NS4A/NS4B natural cleavage site for the HCV NS3 protease except there is an ester linkage rather than an amide bond at the cleavage site. The peptide also contains a fluorescence donor, EDANS, near one end of the peptide and an acceptor, DABCYL, near the other end. The fluorescence of the peptide is quenched by […] resonance energy transfer (RET) between the donor and the acceptor, but as the NS3 protease cleaves the peptide the products are released from RET quenching and the fluorescence of the donor becomes apparent.
The peptide substrate was incubated with one of the three recombinant NS3/4A protease complexes, in the absence or presence of a compound of the present disclosure. The inhibitory effects of a compound were determined by monitoring the formation of fluorescent reaction product in real time using a Cytofluor Series 4000.
Assay buffer: 50 mM HEPES, pH 7.5; 0.15M NaCl; 0.1% Triton; 15% Glycerol; 10 mM βME. Substrate: 2 μM final concentration (from a 2 mM stock solution in DMSO stored at −20° C.). HCV NS3/4A protease type 1a (1b), 2-3 nM final concentration (from a 5 μM stock solution in 25 mM HEPES, pH 7.5, 20% glycerol, 300 mM NaCl, 0.2% Triton-X100, 10 mM βME). […]

T1 sequence (P27958 1027-1657, change not shown, one chain of several): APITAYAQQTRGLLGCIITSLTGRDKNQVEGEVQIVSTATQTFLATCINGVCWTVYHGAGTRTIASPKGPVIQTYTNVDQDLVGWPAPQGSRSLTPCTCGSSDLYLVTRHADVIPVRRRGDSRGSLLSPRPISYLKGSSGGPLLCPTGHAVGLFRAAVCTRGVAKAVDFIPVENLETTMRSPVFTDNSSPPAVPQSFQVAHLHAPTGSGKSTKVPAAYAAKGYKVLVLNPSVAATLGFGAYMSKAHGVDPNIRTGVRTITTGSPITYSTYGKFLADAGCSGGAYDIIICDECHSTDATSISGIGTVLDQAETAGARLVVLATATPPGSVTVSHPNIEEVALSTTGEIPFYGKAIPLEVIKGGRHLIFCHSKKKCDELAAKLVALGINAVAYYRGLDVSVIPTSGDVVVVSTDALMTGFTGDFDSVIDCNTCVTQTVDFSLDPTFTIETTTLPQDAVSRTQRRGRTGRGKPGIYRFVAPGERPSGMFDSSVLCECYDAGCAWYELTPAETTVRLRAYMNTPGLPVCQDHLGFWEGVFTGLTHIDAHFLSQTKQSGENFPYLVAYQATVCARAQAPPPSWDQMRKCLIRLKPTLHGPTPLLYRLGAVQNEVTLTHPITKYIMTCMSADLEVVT

C=C[C@@H]1C[C@]1(NC(=O)[C@@H]1C[C@@](O)(c2ccc(F)c(C)c2)CN1C(=O)[C@@H](NC(=O)OC(C)(C)C)C(C)(C)C)C(=O)NS(=O)(=O)C1CC1 [Compound 22]
EC50 [1]: 1 to 10 µM
IC50 [2]: 100 to 1000 nM

C=C[C@@H]1C[C@]1(NC(=O)[C@@H]1C[C@@](O)(c2ccc(C)c(F)c2)CN1C(=O)[C@@H](NC(=O)OC(C)(C)C)C(C)(C)C)C(=O)NS(=O)(=O)C1CC1 [Compound 23]
EC50 [1]: 1 to 10 µM
IC50 [2]: 100 to 1000 nM

C=C[C@@H]1C[C@]1(NC(=O)[C@@H]1C[C@@](O)(c2cc(C)ccc2C)CN1C(=O)[C@@H](NC(=O)OC(C)(C)C)C(C)(C)C)C(=O)NS(=O)(=O)C1CC1 [Compound 24]
EC50 [1]: 1 to 10 µM
IC50 [2]: 100 to 1000 nM

C=C[C@@H]1C[C@]1(NC(=O)[C@@H]1C[C@@](O)(c2cc(F)ccc2OC)CN1C(=O)[C@@H](NC(=O)OC(C)(C)C)C(C)(C)C)C(=O)NS(=O)(=O)C1CC1 [Compound 25]
EC50 [1]: 1 to 10 µM
IC50 [2]: 100 to 1000 nM
